Experimental data: ChEMBL document CHEMBL4428091, “Design and optimization of (3-aryl-1H-indazol-6-yl)spiro[cyclopropane-1,3'-indolin]-2'-ones as potent PLK4 inhibitors with oral antitumor efficacy” (Bioorg Med Chem Lett, 2016)
pIC50: −log10 of the molar value.

Tests used:
[1] = Half life in rat at 1 mg/kg, iv; format: ADME, organism-based; details: in vivo
[2] = Clearance in rat at 1 mg/kg, iv; format: ADME, organism-based; details: in vivo
[3] = Cmax in mouse at 25 mg/kg, po; format: ADME, organism-based; set-up: dose 25 mg/kg, route oral; details: in vivo, BLD = below limit of detection
[4] = Oral bioavailability in rat at 5 mg/kg; format: ADME, organism-based; details: in vivo
CYP2C19 = CYP2C19 (Homo sapiens, UniProt P33261); test: Inhibition of CYP2C19 (unknown origin) at 1 uM; format: ADME
CYP3A4 = CYP3A4 (Homo sapiens, UniProt P08684); test: Inhibition of CYP3A4 (unknown origin) at 1 uM; format: ADME
CYP2C9 = CYP2C9 (Homo sapiens, UniProt P11712); test: Inhibition of CYP2C9 (unknown origin) at 1 uM; format: ADME
[5] = Lipophilicity, log D of the compound at pH 7.4; format: physicochemical; details: buffer
[6] = Half life in human microsomes; format: ADME, Microsome
[7] = Half life in mouse microsomes; format: ADME, Microsome
[8] = AUC in rat at 1 mg/kg, iv; format: ADME, organism-based; details: in vivo
[9] = AUC in rat at 5 mg/kg, po; format: ADME, organism-based; details: in vivo
[10] = molecular target: T1, Receptor-type tyrosine-protein kinase FLT3 (Homo sapiens, UniProt P36888); test: Inhibition of FLT3 (unknown origin)
T1 sequence (P36888 whole entry): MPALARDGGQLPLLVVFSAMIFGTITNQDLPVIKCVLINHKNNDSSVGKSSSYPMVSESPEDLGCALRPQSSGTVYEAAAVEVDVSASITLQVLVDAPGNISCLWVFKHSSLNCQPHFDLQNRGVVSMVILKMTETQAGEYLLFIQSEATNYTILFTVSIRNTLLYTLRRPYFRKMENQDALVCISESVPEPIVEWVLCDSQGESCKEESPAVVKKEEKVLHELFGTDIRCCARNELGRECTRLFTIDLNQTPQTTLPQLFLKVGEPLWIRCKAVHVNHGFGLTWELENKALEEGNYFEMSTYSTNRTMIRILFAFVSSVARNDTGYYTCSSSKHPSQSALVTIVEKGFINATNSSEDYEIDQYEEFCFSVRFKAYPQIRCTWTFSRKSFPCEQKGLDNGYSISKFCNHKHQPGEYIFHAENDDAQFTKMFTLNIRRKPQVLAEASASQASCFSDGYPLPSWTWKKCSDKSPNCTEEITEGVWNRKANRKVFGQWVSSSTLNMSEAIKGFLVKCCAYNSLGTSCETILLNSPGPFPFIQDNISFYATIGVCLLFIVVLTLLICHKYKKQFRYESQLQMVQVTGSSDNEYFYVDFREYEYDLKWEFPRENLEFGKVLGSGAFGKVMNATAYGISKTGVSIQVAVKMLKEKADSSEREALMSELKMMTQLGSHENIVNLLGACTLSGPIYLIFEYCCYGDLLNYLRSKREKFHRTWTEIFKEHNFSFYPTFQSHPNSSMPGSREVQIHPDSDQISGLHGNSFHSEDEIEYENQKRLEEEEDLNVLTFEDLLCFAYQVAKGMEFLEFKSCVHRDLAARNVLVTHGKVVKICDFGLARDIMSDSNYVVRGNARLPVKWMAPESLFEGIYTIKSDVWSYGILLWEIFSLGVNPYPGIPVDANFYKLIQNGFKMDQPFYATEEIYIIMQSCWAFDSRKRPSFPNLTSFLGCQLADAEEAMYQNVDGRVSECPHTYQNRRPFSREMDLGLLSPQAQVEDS

MDA-MB-468 = test: Growth inhibition of human MDA-MB-468 cells; format: functional
[11] = molecular target: Vascular endothelial growth factor receptor 2 (Homo sapiens, UniProt P35968); test: Inhibition of KDR (unknown origin)
MCF7 = test: Growth inhibition of human MCF7; format: functional
[12] = molecular target: T2, Serine/threonine-protein kinase PLK4 (Homo sapiens, UniProt O00444); test: Inhibition of PLK4 (unknown origin)
T2 sequence (O00444 whole entry): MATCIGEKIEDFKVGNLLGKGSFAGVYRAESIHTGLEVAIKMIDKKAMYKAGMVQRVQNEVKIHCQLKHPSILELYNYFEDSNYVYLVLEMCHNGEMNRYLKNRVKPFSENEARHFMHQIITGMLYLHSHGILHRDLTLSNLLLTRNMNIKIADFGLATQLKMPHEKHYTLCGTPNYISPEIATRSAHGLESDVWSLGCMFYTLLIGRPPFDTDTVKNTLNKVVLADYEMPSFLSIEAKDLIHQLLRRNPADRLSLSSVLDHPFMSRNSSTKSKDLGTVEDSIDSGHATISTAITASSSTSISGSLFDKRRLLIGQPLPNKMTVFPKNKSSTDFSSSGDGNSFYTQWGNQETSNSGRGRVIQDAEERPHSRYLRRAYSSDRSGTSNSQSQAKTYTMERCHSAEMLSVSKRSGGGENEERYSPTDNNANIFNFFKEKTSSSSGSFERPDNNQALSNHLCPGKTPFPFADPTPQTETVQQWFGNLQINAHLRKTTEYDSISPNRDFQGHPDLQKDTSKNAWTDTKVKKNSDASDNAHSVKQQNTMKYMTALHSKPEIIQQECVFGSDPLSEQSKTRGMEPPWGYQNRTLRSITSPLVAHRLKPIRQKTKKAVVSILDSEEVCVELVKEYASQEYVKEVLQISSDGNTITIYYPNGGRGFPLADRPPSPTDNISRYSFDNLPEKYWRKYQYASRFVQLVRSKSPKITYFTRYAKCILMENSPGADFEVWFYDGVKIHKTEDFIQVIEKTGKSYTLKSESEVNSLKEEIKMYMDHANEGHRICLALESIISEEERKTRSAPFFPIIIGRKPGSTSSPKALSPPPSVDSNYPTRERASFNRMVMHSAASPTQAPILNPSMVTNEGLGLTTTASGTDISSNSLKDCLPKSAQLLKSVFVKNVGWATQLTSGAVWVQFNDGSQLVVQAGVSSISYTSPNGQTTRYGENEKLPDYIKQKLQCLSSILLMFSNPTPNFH

HCC1954 = test: Growth inhibition of human HCC1954; format: functional
Aurora kinase B = Aurora kinase B (Homo sapiens, UniProt Q96GD4); test: Inhibition of AURKB (unknown origin)
Aurora kinase A = molecular target: T3, Aurora kinase A (Homo sapiens, UniProt O14965); test: Inhibition of AURKA (unknown origin)
T3 sequence (O14965 whole entry): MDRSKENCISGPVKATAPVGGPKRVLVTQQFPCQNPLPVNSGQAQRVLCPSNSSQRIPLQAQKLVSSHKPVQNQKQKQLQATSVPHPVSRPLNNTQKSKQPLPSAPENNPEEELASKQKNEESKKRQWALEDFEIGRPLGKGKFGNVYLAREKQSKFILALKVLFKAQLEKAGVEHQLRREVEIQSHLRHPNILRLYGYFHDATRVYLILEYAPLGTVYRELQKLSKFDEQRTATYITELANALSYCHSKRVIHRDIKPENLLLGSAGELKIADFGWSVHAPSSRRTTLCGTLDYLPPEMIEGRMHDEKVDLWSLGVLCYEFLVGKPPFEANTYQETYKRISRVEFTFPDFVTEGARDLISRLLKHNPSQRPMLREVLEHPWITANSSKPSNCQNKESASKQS

Chain of Vascular endothelial growth factor receptor 2 (P35968 whole entry): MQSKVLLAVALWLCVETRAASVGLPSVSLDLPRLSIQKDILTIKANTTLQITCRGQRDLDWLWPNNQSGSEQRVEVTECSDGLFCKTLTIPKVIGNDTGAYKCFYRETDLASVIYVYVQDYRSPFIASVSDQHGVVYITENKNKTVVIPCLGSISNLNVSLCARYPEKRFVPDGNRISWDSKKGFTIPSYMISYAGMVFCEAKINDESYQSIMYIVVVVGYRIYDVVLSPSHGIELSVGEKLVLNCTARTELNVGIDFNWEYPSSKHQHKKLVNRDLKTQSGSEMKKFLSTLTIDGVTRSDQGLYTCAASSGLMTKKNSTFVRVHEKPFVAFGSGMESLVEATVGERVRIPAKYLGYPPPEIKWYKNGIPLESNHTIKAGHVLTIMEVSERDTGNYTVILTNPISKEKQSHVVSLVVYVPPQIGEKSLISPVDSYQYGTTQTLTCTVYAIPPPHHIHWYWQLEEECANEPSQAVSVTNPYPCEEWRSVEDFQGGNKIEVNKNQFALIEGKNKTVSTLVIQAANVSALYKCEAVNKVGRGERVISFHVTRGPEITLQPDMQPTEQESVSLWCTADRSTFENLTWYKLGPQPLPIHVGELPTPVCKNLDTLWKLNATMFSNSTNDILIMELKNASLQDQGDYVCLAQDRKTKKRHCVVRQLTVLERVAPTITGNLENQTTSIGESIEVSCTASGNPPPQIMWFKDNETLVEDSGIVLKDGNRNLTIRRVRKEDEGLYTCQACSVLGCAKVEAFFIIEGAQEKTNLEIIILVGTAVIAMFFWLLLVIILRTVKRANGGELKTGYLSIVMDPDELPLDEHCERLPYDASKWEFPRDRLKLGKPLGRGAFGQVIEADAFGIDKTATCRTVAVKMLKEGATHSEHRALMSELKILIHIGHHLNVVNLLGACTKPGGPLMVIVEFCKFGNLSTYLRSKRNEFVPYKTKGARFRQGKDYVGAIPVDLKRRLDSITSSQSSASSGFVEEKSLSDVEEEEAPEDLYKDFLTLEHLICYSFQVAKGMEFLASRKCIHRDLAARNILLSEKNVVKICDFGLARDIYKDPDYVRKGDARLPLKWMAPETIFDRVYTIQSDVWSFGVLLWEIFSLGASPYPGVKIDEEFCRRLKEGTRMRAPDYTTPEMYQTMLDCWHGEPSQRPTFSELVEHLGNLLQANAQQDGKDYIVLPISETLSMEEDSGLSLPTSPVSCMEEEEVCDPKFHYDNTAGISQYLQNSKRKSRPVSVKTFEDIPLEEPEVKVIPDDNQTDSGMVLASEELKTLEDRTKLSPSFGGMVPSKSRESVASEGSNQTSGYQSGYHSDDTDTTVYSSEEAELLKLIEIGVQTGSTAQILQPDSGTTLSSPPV
Chain of CYP2C19 (P33261 whole entry): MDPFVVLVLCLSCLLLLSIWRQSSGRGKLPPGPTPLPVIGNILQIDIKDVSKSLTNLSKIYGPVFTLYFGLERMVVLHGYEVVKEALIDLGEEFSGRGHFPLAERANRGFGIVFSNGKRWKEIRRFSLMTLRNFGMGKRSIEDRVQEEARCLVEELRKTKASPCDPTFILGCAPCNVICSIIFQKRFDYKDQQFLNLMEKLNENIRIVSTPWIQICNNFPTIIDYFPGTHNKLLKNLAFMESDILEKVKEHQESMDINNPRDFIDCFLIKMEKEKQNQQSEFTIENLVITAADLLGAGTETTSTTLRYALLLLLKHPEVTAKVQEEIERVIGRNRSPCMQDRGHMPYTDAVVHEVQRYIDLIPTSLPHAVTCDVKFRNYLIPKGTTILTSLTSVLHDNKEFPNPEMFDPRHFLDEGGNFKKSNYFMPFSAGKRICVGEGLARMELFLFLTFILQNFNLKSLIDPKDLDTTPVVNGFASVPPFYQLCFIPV
Chain of Aurora kinase B (Q96GD4 whole entry): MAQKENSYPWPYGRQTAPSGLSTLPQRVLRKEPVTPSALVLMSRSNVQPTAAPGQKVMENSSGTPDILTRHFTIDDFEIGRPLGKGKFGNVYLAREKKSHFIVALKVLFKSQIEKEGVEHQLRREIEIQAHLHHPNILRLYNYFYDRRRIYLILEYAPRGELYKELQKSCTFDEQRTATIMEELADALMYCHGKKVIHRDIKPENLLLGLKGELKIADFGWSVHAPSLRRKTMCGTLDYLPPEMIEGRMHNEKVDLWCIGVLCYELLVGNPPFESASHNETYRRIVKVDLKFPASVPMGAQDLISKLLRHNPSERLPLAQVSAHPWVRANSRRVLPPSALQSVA
Chain of CYP3A4 (P08684 whole entry): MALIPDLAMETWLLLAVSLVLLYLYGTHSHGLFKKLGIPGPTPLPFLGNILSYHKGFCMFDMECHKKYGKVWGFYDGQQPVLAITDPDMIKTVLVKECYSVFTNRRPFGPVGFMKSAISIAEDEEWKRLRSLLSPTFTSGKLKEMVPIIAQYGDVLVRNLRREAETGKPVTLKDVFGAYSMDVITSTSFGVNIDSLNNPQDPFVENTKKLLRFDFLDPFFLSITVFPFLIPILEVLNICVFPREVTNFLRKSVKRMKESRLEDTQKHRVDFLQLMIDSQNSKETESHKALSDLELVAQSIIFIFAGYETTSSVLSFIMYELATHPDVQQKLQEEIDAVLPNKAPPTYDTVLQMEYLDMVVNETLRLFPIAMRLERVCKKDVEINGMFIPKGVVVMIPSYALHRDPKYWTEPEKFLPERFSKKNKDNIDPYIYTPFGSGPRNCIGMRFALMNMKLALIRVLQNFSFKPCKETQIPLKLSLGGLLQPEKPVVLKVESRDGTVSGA
Chain of CYP2C9 (P11712 whole entry): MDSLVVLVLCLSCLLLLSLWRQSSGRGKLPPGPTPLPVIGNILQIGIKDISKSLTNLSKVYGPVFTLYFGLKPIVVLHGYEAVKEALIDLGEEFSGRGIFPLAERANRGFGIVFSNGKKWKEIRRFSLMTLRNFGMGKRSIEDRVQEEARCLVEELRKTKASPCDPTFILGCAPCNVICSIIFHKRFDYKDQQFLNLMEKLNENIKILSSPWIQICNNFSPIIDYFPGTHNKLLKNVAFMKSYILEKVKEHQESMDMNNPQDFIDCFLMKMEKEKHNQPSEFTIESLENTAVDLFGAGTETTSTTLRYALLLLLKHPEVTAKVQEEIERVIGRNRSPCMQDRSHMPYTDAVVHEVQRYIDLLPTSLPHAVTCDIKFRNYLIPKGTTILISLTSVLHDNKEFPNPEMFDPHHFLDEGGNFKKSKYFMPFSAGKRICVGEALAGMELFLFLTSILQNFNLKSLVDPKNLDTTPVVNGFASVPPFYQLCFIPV

## CN1CCN(c2ccc(/C=C/c3n[nH]c4cc(/C=C5/C(=O)Nc6ccccc65)ccc34)cn2)CC1
[1]
  half-life: 306 min
[2]
  clearance: 107 mL/min/kg
[3]
  Cmax: Bld
[4]
  bioavailability: < 1%
CYP2C19
  inhibition at 1 µM: 83%
CYP3A4
  inhibition at 1 µM: 55%
CYP2C9
  inhibition at 1 µM: 67%
[5]
  logD: 4.5
[6]
  half-life: 24 min
[7]
  half-life: 4 min
[8]
  AUC: 170 ng·h/mL
[9]; BLD = below limit of detection
  AUC: Bld

## O=C1Nc2ccccc2/C1=C\c1ccc2cn[nH]c2c1
[10]
  pIC50: 7.31
MDA-MB-468
  GI50: 4600 nM

## COc1ccc2c(c1)[C@]1(C[C@H]1c1ccc3c(/C=C/c4ccc(N5CCN(C)CC5)nc4)n[nH]c3c1)C(=O)N2
[1]
  half-life: 144 min
[2]
  clearance: 51.7 mL/min/kg
[4]
  bioavailability: 15%
CYP2C19
  inhibition at 1 µM: 93%
CYP3A4
  inhibition at 1 µM: 76%
CYP2C9
  inhibition at 1 µM: 73%
[5]
  logD: 4.2
[6]
  half-life: 16 min
[7]
  half-life: 9 min
[8]
  AUC: 330 ng·h/mL
[9]; read-out: AUC
  AUC: 250 ng·h/mL

## COc1ccc2c(c1)C(=Cc1ccc3c(-c4ccc(N5CCN(C)CC5)nc4)n[nH]c3c1)C(=O)N2
[1]
  half-life: 78 min
[2]
  clearance: 178 mL/min/kg
[10]
  pIC50: 7.55
[4]
  bioavailability: 2%
CYP2C19
  inhibition at 1 µM: 64%
MDA-MB-468
  GI50: 1300 to 3700 nM
[11]
  pIC50: 6.20
CYP3A4
  inhibition at 1 µM: 19%
MCF7
  GI50: 5400 nM
CYP2C9
  inhibition at 1 µM: 60%
[5]
  logD: 3.5
[6]
  half-life: 13 min
[7]
  half-life: 4 min
[8]
  AUC: 94 ng·h/mL
[12]
  pIC50: 8.62
HCC1954
  GI50: 5900 nM
Aurora kinase B
  pIC50: 7.46
Aurora kinase A
  pIC50: 6.15
[9]; read-out: AUC
  AUC: 24 ng·h/mL

## CN1CCN(c2ccc(-c3n[nH]c4cc(C=C5C(=O)Nc6ccccc65)ccc34)cn2)CC1
[10]
  pIC50: 7.77
MDA-MB-468
  GI50: 1300 nM
[12]
  pIC50: 7.89

## O=C1Nc2ccccc2C1=Cc1ccc2c(-c3ccc[nH]3)n[nH]c2c1
[10]
  pIC50: 7.30
MDA-MB-468
  GI50: 7700 nM
[12]
  pIC50: 7.19

## O=C1Nc2ccccc2C1=Cc1ccc2c(-c3cc4ccccc4[nH]3)n[nH]c2c1
[12]
  pIC50: 6.27

## O=C1Nc2ccccc2/C1=C\c1ccc2c(-c3nccs3)n[nH]c2c1
[10]
  pIC50: 7.14
[12]
  pIC50: 6.31

## COc1ccc2c(c1)[C@@]1(C[C@@H]1c1ccc3c(-c4ccc(N5CCN(C)CC5)nc4)n[nH]c3c1)C(=O)N2
[10]
  pIC50: 5.19
MDA-MB-468
  GI50: 3700 nM
[11]
  pIC50: < 4.30
MCF7
  GI50: 5400 nM
[12]
  pIC50: 7.52
HCC1954
  GI50: 5900 nM
Aurora kinase B
  pIC50: 5.68
Aurora kinase A
  pIC50: < 6.00

## CN1CCN(c2ccc(-c3n[nH]c4cc([C@@H]5C[C@@]56C(=O)Nc5ccc(F)cc56)ccc34)cn2)CC1
[10]
  pIC50: 7.01
MDA-MB-468
  GI50: 600 nM

## COc1ccc2c(c1)[C@]1(C[C@H]1c1ccc3c(-c4ccc(N5CCNCC5)cc4)n[nH]c3c1)C(=O)N2
[10]
  pIC50: 7.36
[3]
  Cmax: Bld
MDA-MB-468
  GI50: < 10 nM
[11]
  pIC50: 5.25
MCF7
  GI50: < 10 nM
[5]
  logD: 2.6
[6]
  half-life: 59 min
[7]
  half-life: > 60 min
[12]
  pIC50: 9.35
HCC1954
  GI50: 3600 nM
Aurora kinase B
  pIC50: 8.16
Aurora kinase A
  pIC50: < 6.00

## O=C1Nc2ccccc2C1=Cc1ccc2c(-c3ccncc3)n[nH]c2c1
[10]
  pIC50: 6.92
MDA-MB-468
  GI50: 9900 nM
[12]
  pIC50: 6.66

## O=C1Nc2ccccc2C1=Cc1ccc2c(-c3cccnc3)n[nH]c2c1
[10]
  pIC50: 7.57
MDA-MB-468
  GI50: 5000 nM
[12]
  pIC50: 7.54

## COc1ccc2c(c1)[C@]1(C[C@H]1c1ccc3c(-c4ccnc(N5CCN(C)CC5)c4)n[nH]c3c1)C(=O)N2 (racemic)
[10]
  pIC50: 6.49
MDA-MB-468
  GI50: 380 nM
[12]
  pIC50: 8.68

## COc1ccc2c(c1)[C@]1(C[C@H]1c1ccc3c(-c4ccc(N5CCC(O)CC5)nc4)n[nH]c3c1)C(=O)N2 (racemic)
[10]
  pIC50: 6.62
MDA-MB-468
  GI50: 890 nM

## COc1ccc2c(c1)[C@]1(C[C@H]1c1ccc3c(-c4ccc(N5CCN(C)CC5)nc4)n[nH]c3c1)C(=O)N2 (racemic)
[10]
  pIC50: 6.59
MDA-MB-468
  GI50: 120 nM
[12]
  pIC50: 9.00

## CN1CCN(c2ccc(-c3n[nH]c4cc([C@@H]5C[C@@]56C(=O)Nc5ccccc56)ccc34)cn2)CC1 (racemic)
[10]
  pIC50: 6.70
MDA-MB-468
  GI50: 770 nM
[12]
  pIC50: 7.27

## COc1ccc2c(c1)[C@]1(C[C@H]1c1ccc3c(-c4ccc(N5CCOCC5)nc4)n[nH]c3c1)C(=O)N2 (racemic)
[10]
  pIC50: 5.92
MDA-MB-468
  GI50: 670 nM
